Measured values taken from patent US12029682B2, “Spray ejector mechanisms and devices providing charge isolation and controllable droplet charge, and low dosage volume ophthalmic administration” (EYENOVIA, INC., priority 2012, dated 2024).

Tested on: glaucomatous beagles
Set-up: species or system beagle dog
Conditions: dog, in vivo
Method: All animals are rested a minimum of one week before starting the trials. Intraocular pressure (IOP), pupil diameter (PD), and heart rate (HR) are measured 6 times (at 0, 0:30, 0:45, 1, 2, 7 hrs) daily for five days, for initial baseline levels (Study days 1-5). The basic measurement protocol is followed and performed by the operator. PD is measured via Jameson Caliper (mm horizontally). IOP is measured with a TonoVet instrument with clean probe (iCare). HR is monitored via palpation of the femoral vessels. After two rest days, one eye is randomly assigned to receive the drug delivered via the ejector device and the contralateral eye is given traditional latanoprost from an eye dropper container.
All animals were rested a minimum of one week before starting the trials. Intraocular pressure (IOP), pupil diameter (PD), and heart rate (HR) were measured daily at time 0, 12, 13, 14, 16, and 19 hours for five days starting at approximately 2100 h to establish initial baseline levels (study days 1-5). […] PD was measured via Jameson Caliper (mm horizontally). IOP was measured using a TonoVet instrument with clean probe (iCare). HR was monitored via palpation of the femoral vessels. […]
Following a 7 day rest period, the eye choice was reversed. […] A veterinary ophthalmologist evaluated each test subject before and after the study for evidence of ocular side effects. […]

CC(C)OC(=O)CCC/C=C\C[C@@H]1[C@@H](/C=C/[C@@H](O)COc2cccc(C(F)(F)F)c2)[C@H](O)C[C@@H]1O [travoprost]
changes in HR: no changes in HR
